Assay results reported in patent US20120321609A1, “METHOD OF TREATING PSYCHOLOGICAL DISORDERS” (priority 2011, published 2012).
Ends that are not written are not given here.

Key:
CRFR1 = molecular target: T1, CRFR1 (Homo sapiens, UniProt P34998); assay: CRF-stimulated cAMP formation (cAMP-Glo) in HEK 293 cells with FLAG-5-HT2AR and HA-CRFR1; type: cell-based; settings: 5-HT 10 μM pretreatment 30 min
T1 construct: expressed in transfected cells; host or cells: HEK 293
T1 sequence (P34998 24-415): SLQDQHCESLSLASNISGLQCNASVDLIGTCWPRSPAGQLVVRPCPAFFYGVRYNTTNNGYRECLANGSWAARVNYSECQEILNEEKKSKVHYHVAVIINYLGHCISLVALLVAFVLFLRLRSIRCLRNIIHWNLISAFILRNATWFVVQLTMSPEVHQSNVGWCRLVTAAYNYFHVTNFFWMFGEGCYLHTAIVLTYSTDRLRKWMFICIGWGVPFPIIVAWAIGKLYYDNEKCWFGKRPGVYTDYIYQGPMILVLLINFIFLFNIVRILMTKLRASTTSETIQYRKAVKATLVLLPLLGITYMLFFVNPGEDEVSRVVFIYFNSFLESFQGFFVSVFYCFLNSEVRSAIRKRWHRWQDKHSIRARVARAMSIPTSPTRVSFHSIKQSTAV
Procedure: Briefly, HEK 293 cells transiently expressing FLAG-5-HT2AR and HA-CRFR1 were seeded into 96-well plate (10,000 cells/well). Two days after transfection, cells were incubated in the absence or presence of 10 μM 5-HT in induction buffer [HBSS, 500 μM isobutyl-1-methylxanthine (IBMX)] for 30 minutes at 37° C. […] Following stimulation, cells were solubilized with cAMP-Glo lysis buffer for 15 minutes with gentle shaking at room temperature. Lysates were carefully transferred to a white opaque 96-well plate and cAMP-Glo Detection solution containing protein kinase A was added for 20 minutes at room temperature followed by addition of Kinase-Glo Reagent for 10 min. Luminescence was measured using a Victor Reader (Perkin-Elmer, Walthan, Mass.).

5-HT2AR = molecular target: T2, 5-HT2AR (Homo sapiens, UniProt P28223); assay: 5-HT-stimulated inositol phosphate formation in HEK 293 cells transfected with FLAG-5-HT2AR and HA-CRFR1; type: cell-based; settings: for effect on the CRFR1-dependent increase in 5-HT2AR-stimulated inositol phosphate formation following CRF pretreatment: CRF 500 nM 30 min, monensin 100 μM 30 min, Tat peptide 1 h pretreatment, or co-expressed dominant-negative protein
T2 construct: expressed in transfected cells; host or cells: HEK 293
T2 sequence (P28223 whole entry): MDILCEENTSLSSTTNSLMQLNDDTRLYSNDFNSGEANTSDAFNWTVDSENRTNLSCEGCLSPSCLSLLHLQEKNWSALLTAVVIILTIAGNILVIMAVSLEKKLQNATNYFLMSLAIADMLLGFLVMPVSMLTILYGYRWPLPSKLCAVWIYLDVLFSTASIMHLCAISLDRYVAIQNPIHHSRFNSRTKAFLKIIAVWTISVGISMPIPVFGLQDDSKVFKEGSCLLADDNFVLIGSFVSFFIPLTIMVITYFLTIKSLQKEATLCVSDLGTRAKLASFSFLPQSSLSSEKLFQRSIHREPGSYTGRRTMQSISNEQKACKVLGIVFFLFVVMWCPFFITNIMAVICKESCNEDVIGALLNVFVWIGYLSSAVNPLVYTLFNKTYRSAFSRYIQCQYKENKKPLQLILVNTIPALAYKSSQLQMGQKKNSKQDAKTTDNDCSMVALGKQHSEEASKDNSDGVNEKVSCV

mice [1] = assay: Elevated plus maze test (anxiety-related behaviour); type: in vivo, mouse; settings: DOI 0.15 mg/kg i.p.; for entries to the closed arms of the plus maze: relative to vehicle
Procedure: (§1) Male CD-1 mice were obtained from Charles River Canada (St. Constant, Quebec) at 50-60 days of age, and were acclimatized to the laboratory for approximately 30 days before serving as experimental subjects. Mice were housed four per cage, until the time of surgery, after which they were housed individually. The vivarium was maintained on a 12-h light/dark cycle in a temperature (21° C.) controlled room with food and water freely available. Mice were anesthetized using isoflurane and stereotaxic surgery (David Kopf Instruments Model 940) was performed to install a cannulae into the medial prefrontal cortex. A Guide cannulae (Plastics One In), situated according to the mouse atlas of Franklin and Paxinos at Lateral=0.32 mm, D/V=2.25 mm, A/P=+2.68 mm. A dummy cannula, was inserted flush with guide. Approximately 1 week after behavioral testing mice were perfused with 4% paraformaldehyde. Brains were subsequently sectioned at 14 microns and stained with Cresyl violet for probe placement verification. Only the data from mice with correct probe placements were used in the analysis of the behavioral tests.
Drug diffusion was permitted for 5 min, and then after a further 5 min period mice were injected intraperotineally with DOI (Sigma) at a dose of 0.15 mg/kg or saline. Behavioral testing was conducted 15 min after the DOI treatment. In a second experiment the procedure was identical to that of the preceding study, except that mice were pretreated i.p. with either vehicle or 0.25 mg/kg of M100907 in a volume of 0.3 ml immediately prior to the DOI treatment. As in the preceding study mice were then tested in the elevated plus maze test (n=6-8)/group. Once again, data were obtained from videotapes and the researcher was blind as to the treatments mice had received.
In an initial test, mice were placed in a 45×45 cm open field, with an inner square of 21×24×24 cm., for a 5 min period, during which the time to enter the center area, and the total time spent in the center portion of the arena was recorded. The plus maze test was then conducted 1 min after the open field assessment. Mice were individually placed in one of the enclosed arms of a plus-maze and the behavior of the animals was recorded over a 5 min period by a ceiling-mounted video camera. The amount of time spent in each of the arms, the number of arm entries (an arm entry was defined as all four of the paws being placed in an arm of the plus-maze). The elevated plus-maze had two arms enclosed by 21 cm high walls; whereas the remaining two arms were open (arms were 24.8 cm long×7.7 cm wide). The maze was situated in a dimly lit room, such that the closed arms were darkened, whereas open arms were somewhat illuminated. All behavioural experiments were blinded. All experiments complied with the guidelines set by the Canadian Council on Animal Care and were approved by the Carleton University Animal Care Committee.

mice [2] = assay: as above; type: in vivo, mouse; settings: DOI doses 0.625 and 1.25; data not shown
mice [3] = assay: Open field test (anxiety-related behaviour); type: in vivo, mouse; settings: 5 min test; CRF 1.5 μg into medial prefrontal cortex, DOI 0.15 mg/kg i.p.; vs vehicle-vehicle or single treatment
Procedure: as §1, with “Brains were subsequently sectioned at 14 microns and stained with Cresyl violet for probe placement verification. Only the data from mice with correct probe placements were used in the analysis of the behavioral tests.” left out
In an initial test, mice were placed in a 45×45 cm open field, with an inner square of 21×24×24 cm., for a 5 min period, during which the time to enter the center area, and the total time spent in the center portion of the arena was recorded. […] Mice were individually placed in one of the enclosed arms of a plus-maze and the behavior of the animals was recorded over a 5 min period by a ceiling-mounted video camera. […]

HA-CRFR1 [4] = molecular target: HA-CRFR1
HA-CRFR1 [5] = molecular target: HA-CRFR1; remark: listed apart in the source
[6] = molecular target: endogenous CRFR1 of mouse prefrontal cortex (mouse) (UniProt P35347)
[7] = second experiment (M100907 study), CRF 1.5 μg mPFC, M100907 0.25 mg/kg i.p.
[8] = first experiment, CRF 1.5 μg into medial prefrontal cortex

NCCc1c[nH]c2ccc(O)cc12 [5-HT, serotonin]
effect of pretreatment on CRFR1 responsiveness (CRFR1-mediated cAMP formation) (CRFR1): had no effect

CC[C@@]1([C@@H]2O[C@@H]([C@H]3O[C@@](O)(CO)[C@H](C)C[C@@H]3C)C[C@@H]2C)CC[C@H]([C@]2(C)CC[C@]3(C[C@H](O)[C@@H](C)[C@@H]([C@@H](C)[C@@H](OC)[C@H](C)C(=O)O)O3)O2)O1 [monensin]
effect on the CRFR1-dependent increase in 5-HT2AR-stimulated inositol phosphate formation following CRF pretreatment (5-HT2AR): attenuated the increase in 5-HT2AR signaling
effect on 5-HT2AR signaling in the absence of CRF pretreatment (5-HT2AR; monensin 100 μM for 30 min, no CRF): did not affect 5-HT2AR signaling

COc1cccc([C@H](O)C2CCN(CCc3ccc(F)cc3)CC2)c1OC [M100907]
frequency of open arm entries in the plus maze (mice [1]; [7]): did not make any entries onto the open arm
latency to enter the open arms of the plus maze (mice [1]; [7]): none of the mice entered the open arms
time spent in the closed arms of the plus maze (mice [1]; [7]): increased
time spent in the open arms of the plus maze (mice [1]; [7]): profoundly influenced
entries to the closed arms of the plus maze (mice [1]; [7]): reduced the frequency of arm entries

COc1cc(CC(C)N)c(OC)cc1I (stereo not shown) [DOI, 2,5-dimethoxy-4-iodoamphetamine]
arm entries at significantly higher doses of DOI (mice [2]): elevated arm entries
latency to enter the center square of open field (mice [3]): neither the CRF nor the DOI treatments alone influenced performance
latency to enter an open arm of the plus maze (mice [1]; [8]): modest reduction
number of entries into the closed arms of the plus maze (mice [1]; [8]): did not vary
number of entries onto the open arms of the plus maze (mice [1]; [8]): modest reduction
frequency of open arm entries in the plus maze (mice [1]; [7]): neither CRF nor DOI alone affected the frequency of open arm entries
latency to enter the open arms of the plus maze (mice [1]; [7]): did not influence the latencies
time spent in the closed arms of the plus maze (mice [1]; [7]): unaffected
entries to the closed arms of the plus maze (mice [1]; [7]): increased closed arm entries

B1: Dynamin I-K44A: dominant-negative inhibitor of clathrin-mediated endocytosis, expressed in cells (protein, UniProt Q05193 1-864, looked up, variant K44A)
Dynamin-1: MGNRGMEDLIPLVNRLQDAFSAIGQNADLDLPQIAVVGGQSAGASSVLENFVGRDFLPRGSGIVTRRPLVLQLVNATTEYAEFLHCKGKKFTDFEEVRLEIEAETDRVTGTNKGISPVPINLRVYSPHVLNLTLVDLPGMTKVPVGDQPPDIEFQIRDMLMQFVTKENCLILAVSPANSDLANSDALKVAKEVDPQGQRTIGVITKLDLMDEGTDARDVLENKLLPLRRGYIGVVNRSQKDIDGKKDITAALAAERKFFLSHPSYRHLADRMGTPYLQKVLNQQLTNHIRDTLPGLRNKLQSQLLSIEKEVEEYKNFRPDDPARKTKALLQMVQQFAVDFEKRIEGSGDQIDTYELSGGARINRIFHERFPFELVKMEFDEKELRREISYAIKNIHGIRTGLFTPDMAFETIVKKQVKKIREPCLKCVDMVISELISTVRQCTKKLQQYPRLREEMERIVTTHIREREGRTKEQVMLLIDIELAYMNTNHEDFIGFANAQQRSNQMNKKKTSGNQDEILVIRKGWLTINNIGIMKGGSKEYWFVLTAENLSWYKDDEEKEKKYMLSVDNLKLRDVEKGFMSSKHIFALFNTEQRNVYKDYRQLELACETQEEVDSWKASFLRAGVYPERVGDKEKASETEENGSDSFMHSMDPQLERQVETIRNLVDSYMAIVNKTVRDLMPKTIMHLMINNTKEFIFSELLANLYSCGDQNTLMEESAEQAQRRDEMLRMYHALKEALSIIGDINTTTVSTPMPPPVDDSWLQVQSVPAGRRSPTSSPTPQRRAPAVPPARPGSRGPAPGPPPAGSALGGAPPVPSRPGASPDPFGPPPQVPSRPNRAPPGVPSRSGQASPSRPESPRPPFDL
effect on the CRFR1-dependent increase in 5-HT2AR-stimulated inositol phosphate formation following CRF pretreatment (5-HT2AR): completely eliminated

B2: corticotropin releasing factor (CRF) peptide (ligand, UniProt P06850 154-194, looked up, species assumed)
Corticoliberin: SEEPPISLDLTFHLLREVLEMARAEQLAQQAHSNRKLMEII
modifications: ends and bridges not checked
cell surface expression of 5-HT2AR (biotinylation) (HA-CRFR1 [4]): 3.7 fold
loss of cell surface HA-CRFR1 (flow cytometry) (HA-CRFR1 [5]): 24%
5-HT-stimulated inositol phosphate formation in prefrontal cortex slices [6]: 2.3 fold

B3: Rab11-S25N: dominant negative Rab11 protein inhibiting receptor recycling via slow recycling endosomes (protein, UniProt P62491 2-213, looked up, variant S25N)
Ras-related protein Rab-11A: GTRDDEYDYLFKVVLIGDSGVGKNNLLSRFTRNEFNLESKSTIGVEFATRSIQVDGKTIKAQIWDTAGQERYRAITSAYYRGAVGALLVYDIAKHLTYENVERWLKELRDHADSNIVIMLVGNKSDLRHLRAVPTDEARAFAEKNGLSFIETSALDSTNVEAAFQTILTEIYRIVSQKQMSDRRENDMSPSNNVVPIHVPPTTENKPKVQCC
effect on the CRFR1-dependent increase in 5-HT2AR-stimulated inositol phosphate formation following CRF pretreatment (5-HT2AR): but not the overexpression of Rab11-S25N, blocked the increase
